Where two headings read alike, the source gives them in different places. Marks after values point to notes of the source that are not given here.
Experiments:
[1] = test system: monoamine transmitters (NA, DA and 5-HT); assay: In vivo brain microdialysis of monoamines in striatum and frontal cortex; set-up: species or system rat; details: 50 μmol/kg s.c., rats; for response vs control in vivo at 50 µmol/kg: Rattus norvegicus, sc
From the text: The microdialysis technique (See, for instance, Collin and Ungerstedt, Microdialysis: user's guide, Carnegie Medicin, Stockholm, 1988) is a well-established technique for measuring extracellular levels of neurotransmitters (Ungerstedt, J Int Med, 1991, 230; 365-73). The microdialysis technique was used to measure the effect of compounds disclosed herein upon the efflux of monoamine transmitters (NA, DA and 5-HT) in striatum and frontal cortex in conscious, freely moving rats.
Male Sprague-Dawley rats weighing 280-320 g were used throughout the experiments. Before the experiment the animals were housed in groups, maximum five animals in each cage, with free access to water and food. The animals were housed at least one week prior to surgery and use in the experiments.
A modified version (Waters et al., J Neural Transm Gen Sect, 1994, 98(1); 39-55) of the I-shaped probe (Santiago and Westerink, N-S Arch Pharmacol, 1990, 342; 407-14) with the AN69 polyacrylonitrile/sodium methyl sulfonate copolymer (HOSPAL; o.d/i.d. 310/220 μm: dialysis membrane (Gambro, Lund, Sweden) was used in the microdialysis experiments. In the dorsal striatum, probes with an exposed length of 3 mm of dialysis membrane were used and in the prefrontal cortex the corresponding length was 2.5 mm. The rats were operated under isoflurane inhalation anesthesia while mounted into a Kopf stereotaxic instrument. Coordinates were calculated relative to bregma; dorsal striatum AP+1.0, ML±2.6, DV 6.2; Pf cortex, AP 15+3.2, ML+1.2, DV −4.08°, according to Paxinos and Watson (New York, Academic Press, 1986; FIG. 8 and FIG. 14). The dialysis probe was positioned in a burr hole under stereotaxic guidance and cemented with phosphatine dental cement (DAB Dental).
The rats were housed individually in cages for 48 h before the dialysis experiments, allowing them to recover from surgery and minimizing the risk of drug interactions with the anesthetics during the following experiments. During this period the rats had free access to food and water.
On the day of the experiment the rats were connected to a micro-perfusion pump via a swivel and were replaced in the cage where they could move freely within its confinements. The perfusion medium was a Ringer's solution containing (in mmol/I): NaCl; 140, CaCl2; 1.2, KCl; 3.0, MgCl2; 1.0 (Moghaddam and Bunney. Neurochem., 1989, 53; 652-4). The pump was set to a perfusion speed of 2 μl/min and 40 μl sample volume were collected every 20 min.
The rats were perfused for at least 40 min before sampling began. Five fractions of each 20 min were collected and the last three were used for the establishment of the baseline. After collection of baseline fractions, the pharmacological challenge to the dialysis experiment started. Test compounds were administrated by injection (s.c.) in a volume of 5 ml/kg, with 0.9% NaCl (saline) as vehicle.
The analytical method were based on two chromatographic separations dedicated for amines or acids. Two chromatographic systems shared a common auto injector with a 10-port valve and two sample loops for simultaneous injection on the two systems.
The acids were separated by reversed phase chromatography while the amines were separated by reversed phase ion pairing chromatography preceded by a reverse phase separation in a column switching configuration. Three separation columns (Luna C18 (2), dp 3 μm, 2 mm i.d., Phenomenex) of different lengths were used. Electrochemical detection was accomplished on glassy carbon electrodes (MF-1000, Bioanalytical Systems, Inc.)
The aqueous mobile phase (0.6 ml/min) for the acid system contained citric acid (40 mM, dipotassium hydrogen phosphate 10 mM, methanol 8-11% (v/v) and EDTA 0.1 mM. Column length was 30 mm and detection potential relative to Ag/AgCl reference was 0.74V. […]

DOPAC = assay: Neurochemistry: tissue levels of DOPAC in brain regions; type: in vivo, rat; details: 33 μmol/kg s.c., rats, 65 min before sacrifice, n = 5
From the text: The change in turnover of dopamine in the terminal areas of the ascending dopaminergic projections of the mammalian brain can be illustrated by measuring of changes in biochemical indices in the brain e.g. changes in concentrations of dopamine metabolites such as 3,4-dihydroxyphenyl-acetic acid (DOPAC) in the striatum and frontal cortex.
The measurement of the tissue content of DOPAC is well established in the field of research since the 1960's. In short, male Sprague-Dawley rats are administered the test compound 60 minutes prior to decapitation. The brain is rapidly taken out and dissected. The striatum is rapidly frozen and subsequently quantitatively analyzed with respect to its content of DOPAC by means of HPLC and electrochemical detection. The number of animals used for each test compound/vehicle is 5/group.
After the behavioural activity sessions, the rats were decapitated and their brains rapidly taken out and put on an ice-cold petri-dish. The brains were dissected into a right and a left part of which the right part was analyzed for neurochemicals with HPLC and the left part was analyzed for gene expression. The limbic forebrain, the striatum, the frontal cortex, the hippocampus and the remaining hemispheral parts of each rat were dissected and frozen. Each brain part was subsequently analyzed with respect to its content of monoamines and their metabolites.
The monoamine transmitter substances (NA (noradrenaline), DA (dopamine), 5-HT (serotonin)) as well as one corresponding acid, (DOPAC (3,4-dihydroxyphenylacetic acid), were quantified in brain tissue homogenates by HPLC separations and electrochemical detection.
The analytical method is based on two chromatographic separations dedicated for amines or acids. Two chromatographic systems share a common auto injector with a 10-port valve and two sample loops for simultaneous injection on the two systems. Both systems are equipped with a reverse phase column (Luna C18 (2), dp 3 μm, 50*2 mm i.d., Phenomenex) and electrochemical detection is accomplished at two potentials on glassy carbon electrodes (MF-1000, Bioanalytical Systems, Inc.). The column effluent is passed via a T-connection to the detection cell or to a waste outlet. This is accomplished by two solenoid valves, which block either the waste or detector outlet. By preventing the chromatographic front from reaching the detector, better detection conditions are achieved. The aqueous mobile phase (0.4 ml/min) for the acid system contains citric acid 14 mM, sodium citrate 10 mM, Methanol 15% (v/v) and EDTA 0.1 mM. Detection potentials relative to Ag/AgCl reference are 0.45 and 0.60V. […] Detection potentials relative to Ag/AgCl reference are 0.45 and 0.65V.

Fc1ccc(F)c(C(F)C2CNC2)c1.O=C(O)C(=O)O (stereo not drawn) [Example 6, 3-[(2,5-Difluorophenyl)(Fluoro)Methyl]Azetidine Oxalate Salt]
NA Stri ± SEM, maximum effect compared to baseline ([1]; striatum dialysate): 1375^a percent of control
response vs control in vivo at 50 µmol/kg ([1]; frontal cortex dialysate, read-out: 5-HT FC ± SEM, maximum effect compared to baseline): 182 ± 12%
response vs control in vivo at 50 µmol/kg ([1]; striatum dialysate, read-out: 5-HT Stri ± SEM, maximum effect compared to baseline): 208%
response vs control in vivo at 50 µmol/kg ([1]; striatum dialysate, read-out: DA Stri ± SEM, maximum effect compared to baseline): 242%
DOPAC frontal cortex ± SEM (DOPAC; frontal cortex tissue): 139 ± 10% of control means
DOPAC striatum ± SEM (DOPAC; striatum tissue): 76 ± 3% of control means

From US10087142B2, “Azetidine derivatives useful as modulators of cortical cathecolaminergic neurotransmission” (Integrative Research Laboratories Sweden AB, priority 2015, dated 2018)
